These results are taken from patent US4994460A, “Agents for treatment of brain ischemia” (Bristol-Myers Squibb Co., priority 1990, dated 1991).

Assay [1] concerns hypoxia-induced death. As to the kind of experiment: Anoxic Nitrogen Test in Rats (survival after 1 min pure N2). It counts as in vivo, male Sprague-Dawley rats. The settings on record: Rattus norvegicus; for ED50: anoxic nitrogen test, 2 hr observation, 95% confidence limits in brackets, read-out: ED50 (19/20 C.L); for responders at 80 mg/kg: 80 mg/kg ip. An excerpt: Most specifically, administration of the compounds of Formula I results in protecting against hypoxia-induced death in an anoxic nitrogen test in rats. This particular test identifies the neuro-protective effects of substances against lethal brain damages produced by a lack of oxygen consumption (anoxia). In this test procedure, control animals exposed for one minute to a pure nitrogen atmosphere will expire because of respiratory failure caused by irreversible damage to the brain respiratory center.
The animals utilized are male Sprague-Dawley rats (200-240 grams) housed four animals per cage in a normal controlled environment with unlimited access to food and water. Usually there are 8 animals per dose, however, 4 animals can be employed to obtain an initial impression of a compound's activity. Animals surviving the anoxic insult are sacrificed via CO2 inhalation following completion of the observation session (2 hr).
[…] The anoxic episode consists of placing up to 4 animals in the sealed test chamber (10" l×10" w×6" h) continuously flushed with pure N2 (4.5 grade) at a flow rate of 3 SCFM for 1 min. Animals are then promptly removed to normal atmosphere and observed for the 2 hour time period. Typically, animals become disoriented within 15 sec which leads into convulsions at 30 to 35 sec after which they remain motionless.
In spite of the fact that after the N2 exposure the heart is still beating, all control animals fail to gasp when removed from the chamber and usually expire within 3 minutes. Drug treated animals, however, still gasp or start gasping after being removed which is a good indication if an animal will survive the N2 exposure (1).
Results are recorded as: [formula] and are statistically evaluated using the Finney Dose Response program for determination of the ED50 and its corresponding 95% confidence limits.
Compounds of the present invention were rated at each dose level tested using the following rating scale:
+=weak activity (up to 25% survival)
++=moderate activity (25-50% survival)
+++=good activity (51-75% survival)
++++=very good activity (76-100%)

The conditions of assay [2]: Wauquier et al., Drug Development Research 8/373-380 (1986); cited from earlier work.
Assay [3] concerns animal models of stroke and brain infarction. The note with it: Gotti et al., JPET 247/3, 1211-1221 (1988); cited from earlier work.
Setting [4] is: ip, Table 2, 40 mg/kg ip, read-out: Rating (survival).
Where [5] appears, read: ip, Table 2, read-out: Rating (survival).
Setting [6] is: ip, Table 3, 40 mg/kg i.p. 60 minutes prior to anoxia testing, read-out: Anti-ischemic Rating.
The mark [7] stands for this setting: ip, 40 mg/kg ip, read-out: Anti-ischemic Rating.

Where a name gives a salt, the structure may show the parent alone. Read-outs that look alike come from different tables or passages of the source.

Turning to `C[C@]12N[C@H](Cc3ccccc31)c1ccccc12` [(+)MK-801, reference compound], the ED50 in assay [1] (ip) is 3.1 mg/kg.
As to `Fc1ccc(SCCCN2CCN(c3ncc(F)cn3)CC2)cc1` [Example 10, 1-[3-(4-Fluorophenylthio)propyl]-4-(5-fluoro-2-pyrimidinyl) piperazine], in assay [1] (Table 2, "^ 40^a" mg/kg ip, given 60 minutes prior to anoxia testing, read-out: Rating (survival)), the responders at 40 mg/kg is under 25%.
`Fc1cnc(N2CCN(CCCC3OCCO3)CC2)nc1` [Example 11, 1-[3-(1,3-dioxolan-2-yl)propyl]-4-(5-Fluoro-2-pyrimidinyl) piperazine]: in assay [1] (setting [4]), the responders at 40 mg/kg is under 25%.
As to `O=C(CCCN1CCN(c2ncc(F)cn2)CC1)c1cccs1` [Example 12, 1-(2-Thienyl)-4-[4-(5-fluoro-2-pyrimidinyl)-1-piperazinyl]butanone], the responders at 40 mg/kg in assay [1] (setting [4]) is under 25%.
Consider `O=C(CCCN1CCN(c2ncc(F)cn2)CC1)c1ccc(F)c2ccccc12` [Example 13, 1-(4-Fluoronaphth-1-yl)-4-[4-(5-fluoro-2-pyrimidinyl)-1-piperazinyl]butanon], for which the responders at 40 mg/kg in assay [1] (setting [4]) is 25 to 50%. Further, the responders at 80 mg/kg in assay [1] (setting [5]) was 76 to 100%.
As for `CC(=O)NC(CCCN1CCN(c2ncc(F)cn2)CC1)c1ccc(F)cc1` (centres unmarked) [Example 18, 1-[4-Acetamido-4-(4-fluorophenyl)butyl]-4-(5-fluoro-2-pyrimidinyl)piperazine monohydrochloride], in assay [1] (setting [4]), the responders at 40 mg/kg was under 25%.
Same read-out and setting: as for `O=C(NC(CCCN1CCN(c2ncc(F)cn2)CC1)c1ccc(F)cc1)c1ccc(F)cc1` (centres unmarked) [Example 19, 1-[4-(4-Fluorobenzamido)-4-(4-fluorophenyl)butyl]-4-(5-fluoro-2-pyrimidinyl)piperazine], the figure is 76 to 100%.
Regarding `O=S(=O)(NC(CCCN1CCN(c2ncc(F)cn2)CC1)c1ccc(F)cc1)c1ccc(F)cc1` (centres unmarked) [Example 20, 1-[4-(4-Fluorophenyl)-4-(4-fluorophenylsulfonamido)butyl]-4-(5-fluoro-2-pyrimidinyl)piperazine], in assay [1] (setting [5]), the responders at 80 mg/kg lay within 76 to 100%.
Regarding `O=S(=O)(CCCN1CCN(c2ncc(F)cn2)CC1)c1ccc(F)cc1` [Example 21, 1-[3-(4-Fluorophenylsulfonyl)propyl]-4-(5-fluoro-2-pyrimidinyl)piperazine], the responders at 40 mg/kg in assay [1] (setting [4]) is under 25%.
As to `OC(CCCN1CCN(c2ncc(F)cn2)CC1)C1CCCCC1` (centres unmarked) [Example 22, 1-Cyclohexyl-4-[4-(5-fluoro-2-pyrimidinyl)-1-piperazinyl]butanol], in assay [1] (setting [5]), the responders at 80 mg/kg lay within 51 to 75%.
With `OC(CCCN1CCN(c2ncc(F)cn2)CC1)c1ccc(F)c2ccccc12` (centres unmarked) [Example 23, 1-(4-Fluoronaphth-1-yl)-4-[4-(5-fluoro-2-pyrimidinyl)-1-piperazinyl]butanol], the responders at 100 mg/kg in assay [1] (ip, Table 2, 100 mg/kg ip, read-out: Rating (survival)) was 76 to 100%.
Regarding `O=C(NC(CCCN1CCN(c2ncc(F)cn2)CC1)c1ccc(F)c2ccccc12)c1ccc(F)cc1` (centres unmarked) [Example 26], the responders at 40 mg/kg in assay [1] (setting [6]) is 25 to 50%.
The same measure, in the same setting: under `Fc1cnc(N2CCN(CCCCc3ccc(F)c4ccccc34)CC2)nc1` [Example 28] stands 51 to 75%.
On to `O=S(=O)(NC(CCCN1CCN(c2ncc(F)cn2)CC1)C1CCCCC1)c1ccc(F)cc1` (centres unmarked) [Example 30], for which the responders at 40 mg/kg in assay [1] (setting [6]) lay in the range of 25 to 50%.
Still for that read-out and setting: under `Fc1cnc(N2CCN(CCCCC3CCCCC3)CC2)nc1` [Example 31] stands 25 to 50%.
As to `OC(CCCN1CCN(c2ncc(F)cn2)CC1)(c1ccc(F)cc1)C1CCCCC1` (centres unmarked) [Example 37, 1-Cyclohexyl-1-(4-fluorophenyl)-4-(4-(5-fluoro-2-pyrimidinyl)-1-piperazinyl)-1-butanol], the responders at 40 mg/kg in assay [1] (setting [7]) is 51 to 75%.
For `O=C(OC(CCCN1CCN(c2ncc(F)cn2)CC1)c1ccc(F)cc1)c1ccc(F)cc1` (centres unmarked) [Example 39, 1-(4-Fluorophenyl)-4-(4-(5-fluoro-2-pyrimidinyl)-1-piperazinyl)-1-butyl 4-fluorobenzoate hydrochloride], the responders at 40 mg/kg in assay [1] (setting [7]) fell in the range of 51 to 75%.
On the same count and under the same terms, under `[N-]=[N+]=NC(CCCN1CCN(c2ncc(F)cn2)CC1)c1ccc(F)c2ccccc12` (centres unmarked) [Example 40, 1-(4-Azido-4-(4-fluoro-1-naphthyl)-1-butyl)-4-(5-fluoro-2-pyrimidinyl)piperazine monohydrochloride] stands 25 to 50%.
In the case of `NC(CCCN1CCN(c2ncc(F)cn2)CC1)c1ccc(F)c2ccccc12` (centres unmarked) [Example 41, 1-(4-Fluoro-1-naphthyl)-4-(4-(5-fluoro-2-pyrimidinyl)-1-piperazinyl) butylamine hydrochloride], in assay [1] (setting [7]), the responders at 40 mg/kg lay in the range of 76 to 100%.
On the same count and under the same terms, under `COC(CCCN1CCN(c2ncc(F)cn2)CC1)c1ccc(F)cc1` (centres unmarked) [Example 42, 1-[4-(4-Fluorophenyl)-4-methoxybutyl]-4-(5-fluoropyrimidin-2-yl) piperazine hydrochloride] stands 25 to 50%.
On to `O=C(NC(CCCN1CCN(c2ncc(F)cn2)CC1)c1ccc(F)cc1)c1ccccc1` (centres unmarked) [Example 43], for which the responders at 40 mg/kg in assay [1] (setting [6]) lay in the range of 25 to 50%.
For `O=C(NC(CCCN1CCN(c2ncc(F)cn2)CC1)c1ccc(F)cc1)c1ccc(F)c2ccccc12` (centres unmarked) [Example 44], the responders at 40 mg/kg in assay [1] (setting [6]) lay in the range of 25 to 50%.
Same read-out and setting: under `O=S(=O)(NC(CCCN1CCN(c2ncc(F)cn2)CC1)c1ccc(F)c2ccccc12)c1ccc(F)cc1` (centres unmarked) [Example 45] stands under 25%; under `O=C(OC(CCCN1CCN(c2ncc(F)cn2)CC1)c1ccc(F)cc1)c1ccccc1` (centres unmarked) [Example 46], 25 to 50%; under `Fc1ccc(CCN2CCN(c3ncc(F)cn3)CC2)cc1` [Example 47], under 25%.
As to `O=C(CCCN1CCN(c2ncc(F)cn2)CC1)C1CCCCC1` [Example 48], in assay [1] (setting [6]), the responders at 40 mg/kg is 76 to 100%.
On to `O=C(NC(CCCN1CCN(c2ncc(F)cn2)CC1)C1CCCCC1)c1ccc(F)cc1` (centres unmarked) [Example 49], for which the responders at 40 mg/kg in assay [1] (setting [6]) is under 25%.
Regarding `CN(c1nc2ccccc2s1)C1CCN(CC(O)COc2ccc(F)cc2)CC1` (centres unmarked) [Sabeluzole], in assay [2], the anticonvulsant properties result is “anticonvulsant properties” and the antihypoxic activity entry is reported as “potent antihypoxic agent”. Further, the ED50 in assay [1] (ip) came to 4.7 mg/kg.
As for `CC(C(O)c1ccc(O)cc1)N1CCC(Cc2ccccc2)CC1` (centres unmarked) [ifenprodil], the tissue sparing entry in assay [3] is listed as “effective in tissue sparing”.
